# Results published in patent US11945822B2, “Pyrazolo-triazine and/or pyrazolo-pxrimidine derivatives as selective inhibitor of cyclin dependent kinase” (QURIENT CO., LTD., priority 2018, dated 2024).
# Target: T1, CDK7/Cyclin H/MNAT1 (Homo sapiens, UniProt P50613)
# T1 construct: purchased Invitrogen PR6749B
# Experiment: Enzymatic assay for CDK7 (FRET based LANCE Ultra kinase assay)
# Type: biochemical
# Conditions: CDK7 over CDK1
# Procedure, shortened: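 LANCE Ultra TR-FRET kinase assay using a ULight-labeled peptide substrate and a Eu-labeled anti-phospho antibody, with ATP at its Km. Purified CDK/cyclin complex was added to compound after brief centrifugation.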
# T1 sequence (P50613 whole entry): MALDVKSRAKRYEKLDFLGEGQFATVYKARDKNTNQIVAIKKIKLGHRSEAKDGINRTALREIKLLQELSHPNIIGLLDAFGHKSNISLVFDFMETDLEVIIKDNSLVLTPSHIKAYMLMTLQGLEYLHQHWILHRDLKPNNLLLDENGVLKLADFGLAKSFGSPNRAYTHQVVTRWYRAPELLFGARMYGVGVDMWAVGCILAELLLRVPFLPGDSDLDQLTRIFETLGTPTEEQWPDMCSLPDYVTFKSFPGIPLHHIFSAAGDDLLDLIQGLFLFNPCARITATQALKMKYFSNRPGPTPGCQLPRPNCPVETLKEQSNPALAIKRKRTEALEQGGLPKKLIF
# T1 sequence (P51946 whole entry partner): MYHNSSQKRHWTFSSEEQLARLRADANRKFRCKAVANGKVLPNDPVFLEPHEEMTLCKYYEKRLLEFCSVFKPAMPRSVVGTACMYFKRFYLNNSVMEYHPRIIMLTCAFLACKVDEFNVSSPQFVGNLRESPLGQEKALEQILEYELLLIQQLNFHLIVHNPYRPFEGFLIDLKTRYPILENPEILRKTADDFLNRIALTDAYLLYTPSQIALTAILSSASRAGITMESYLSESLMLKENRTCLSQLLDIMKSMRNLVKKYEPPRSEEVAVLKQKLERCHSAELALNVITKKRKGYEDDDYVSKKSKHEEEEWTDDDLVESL
# T1 sequence (P51948 whole entry partner): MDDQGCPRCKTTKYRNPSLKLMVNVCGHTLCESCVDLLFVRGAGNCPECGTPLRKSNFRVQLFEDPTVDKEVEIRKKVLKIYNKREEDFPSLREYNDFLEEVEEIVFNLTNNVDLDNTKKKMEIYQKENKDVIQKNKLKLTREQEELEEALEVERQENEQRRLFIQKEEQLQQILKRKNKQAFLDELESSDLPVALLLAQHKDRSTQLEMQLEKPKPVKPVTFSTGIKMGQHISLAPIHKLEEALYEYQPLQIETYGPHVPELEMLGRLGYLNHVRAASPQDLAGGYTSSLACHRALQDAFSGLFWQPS
row,Compound,CDK1/CDK7: Selectivity of CDK7 inhibition over CDK1 inhibition
1,CC(C)c1cnn2c(NCc3cccc4c3N(C)C(=O)CC4)nc(N3CCC(N)CC3)nc12 [Compound 69],"B (B=less than 200 fold, but greater than 20 fold)"
2,CC(=O)NC1CCN(c2nc(NCc3ccccc3-c3cc4ccccc4[nH]3)n3ncc(C(C)C)c3n2)CC1 [Compound 111],"B (B=less than 200 fold, but greater than 20 fold)"
3,CC(C)c1cnn2c(NCc3ccccc3-c3cc4ccccc4[nH]3)nc(N3CCC(C(N)=O)CC3)nc12 [Compound 117],A (A=greater than 200 fold)

# More lines, now with the values ahead:
row,CDK1/CDK7: Selectivity of CDK7 inhibition over CDK1 inhibition,Compound
1,A (A=greater than 200 fold),CC(C)c1cnn2c(NCc3ccccc3N3CCc4ccccc43)nc(N3CCC(N)CC3)nc12 [Compound 76]
2,A (A=greater than 200 fold),CC(C)c1cnn2c(NCc3ccccc3-c3nc4ccccc4n3C)nc(N3CCC(N)CC3)nc12 [Compound 96]
3,A (A=greater than 200 fold),CC(C)c1cnn2c(NCc3ccccc3-c3cc4ccccc4[nH]3)nc(NC3CCOCC3)nc12 [Compound 114]

# Same assay, conditions: CDK7 over CDK2
row,Compound,CDK2/CDK7: Selectivity of CDK7 inhibition over CDK2 inhibition
1,CC(C)c1cnn2c(NCc3cccc4c3N(C)C(=O)CC4)nc(N3CCC(N)CC3)nc12 [Compound 69],"B (B=less than 200 fold, but greater than 20 fold)"
2,CC(C)c1cnn2c(NCc3ccccc3N3CCc4ccccc43)nc(N3CCC(N)CC3)nc12 [Compound 76],"B (B=less than 200 fold, but greater than 20 fold)"
3,CC(C)c1cnn2c(NCc3ccccc3-c3nc4ccccc4n3C)nc(N3CCC(N)CC3)nc12 [Compound 96],A (A=greater than 200 fold)
4,CC(=O)NC1CCN(c2nc(NCc3ccccc3-c3cc4ccccc4[nH]3)n3ncc(C(C)C)c3n2)CC1 [Compound 111],"B (B=less than 200 fold, but greater than 20 fold)"
5,CC(C)c1cnn2c(NCc3ccccc3-c3cc4ccccc4[nH]3)nc(NC3CCOCC3)nc12 [Compound 114],"B (B=less than 200 fold, but greater than 20 fold)"
6,CC(C)c1cnn2c(NCc3ccccc3-c3cc4ccccc4[nH]3)nc(N3CCC(C(N)=O)CC3)nc12 [Compound 117],A (A=greater than 200 fold)

# Same assay, conditions: CDK7 over CDK5
row,Compound,CDK5/CDK7: Selectivity of CDK7 inhibition over CDK5 inhibition
1,CC(C)c1cnn2c(NCc3cccc4c3N(C)C(=O)CC4)nc(N3CCC(N)CC3)nc12 [Compound 69],C (C=less than 20 fold)
2,CC(C)c1cnn2c(NCc3ccccc3N3CCc4ccccc43)nc(N3CCC(N)CC3)nc12 [Compound 76],"B (B=less than 200 fold, but greater than 20 fold)"
3,CC(C)c1cnn2c(NCc3ccccc3-c3nc4ccccc4n3C)nc(N3CCC(N)CC3)nc12 [Compound 96],"B (B=less than 200 fold, but greater than 20 fold)"
4,CC(=O)NC1CCN(c2nc(NCc3ccccc3-c3cc4ccccc4[nH]3)n3ncc(C(C)C)c3n2)CC1 [Compound 111],C (C=less than 20 fold)
5,CC(C)c1cnn2c(NCc3ccccc3-c3cc4ccccc4[nH]3)nc(NC3CCOCC3)nc12 [Compound 114],"B (B=less than 200 fold, but greater than 20 fold)"
6,CC(C)c1cnn2c(NCc3ccccc3-c3cc4ccccc4[nH]3)nc(N3CCC(C(N)=O)CC3)nc12 [Compound 117],"B (B=less than 200 fold, but greater than 20 fold)"

# Same assay, conditions: read-out: CDK7 enzymatic activity (IC50 range)
row,Compound,IC50 [µM]
1,CC(C)c1cnn2c(NCc3cccc4c3N(C)C(=O)CC4)nc(N3CCC(N)CC3)nc12 [Compound 69],< 0.1
2,CC(=O)NC1CCN(c2nc(NCc3ccccc3-c3cc4ccccc4[nH]3)n3ncc(C(C)C)c3n2)CC1 [Compound 111],< 0.1
3,CC(C)c1cnn2c(NCc3ccccc3-c3cc4ccccc4[nH]3)nc(N3CCC(C(N)=O)CC3)nc12 [Compound 117],0.1 to 1

# Other lines, results leading:
row,IC50 [µM],Compound
1,< 0.1,CC(C)c1cnn2c(NCc3ccccc3N3CCc4ccccc43)nc(N3CCC(N)CC3)nc12 [Compound 76]
2,< 0.1,CC(C)c1cnn2c(NCc3ccccc3-c3nc4ccccc4n3C)nc(N3CCC(N)CC3)nc12 [Compound 96]
3,0.1 to 1,CC(C)c1cnn2c(NCc3ccccc3-c3cc4ccccc4[nH]3)nc(NC3CCOCC3)nc12 [Compound 114]

# Target: T2, CDK2/Cyclin A (Homo sapiens, UniProt P24941)
# T2 construct: purchased Invitrogen PV6290
# Experiment: Enzymatic assay for CDK2 (FRET based LANCE Ultra kinase assay)
# Type: biochemical
# Conditions: read-out: CDK2 enzymatic activity (IC50 range)
# Procedure, shortened: (§1)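 TR-FRET (LANCE Ultra) kinase assay at ATP Km, ULight-MBP peptide substrate (68 nM), 8-dose 4-fold compound series in DMSO. Enzymes: […]; 60 min at 23° C., stopped with EDTA plus Eu-anti-phospho-MBP antibody, read 665/615 nm after 60 min.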
row,Compound,IC50 [µM]
1,CC(C)c1cnn2c(NCc3cccc4c3N(C)C(=O)CC4)nc(N3CCC(N)CC3)nc12 [Compound 69],< 0.1
2,CC(=O)NC1CCN(c2nc(NCc3ccccc3-c3cc4ccccc4[nH]3)n3ncc(C(C)C)c3n2)CC1 [Compound 111],> 1
3,CC(C)c1cnn2c(NCc3ccccc3-c3cc4ccccc4[nH]3)nc(N3CCC(C(N)=O)CC3)nc12 [Compound 117],> 1

# More lines, now with the values ahead:
row,IC50 [µM],Compound
1,> 1,CC(C)c1cnn2c(NCc3ccccc3N3CCc4ccccc43)nc(N3CCC(N)CC3)nc12 [Compound 76]
2,> 1,CC(C)c1cnn2c(NCc3ccccc3-c3nc4ccccc4n3C)nc(N3CCC(N)CC3)nc12 [Compound 96]
3,> 1,CC(C)c1cnn2c(NCc3ccccc3-c3cc4ccccc4[nH]3)nc(NC3CCOCC3)nc12 [Compound 114]

# Target: T3, CDK1/Cyclin B (Homo sapiens, UniProt P06493)
# T3 construct: purchased Invitrogen PR4768C
# T3 sequence (P06493 whole entry): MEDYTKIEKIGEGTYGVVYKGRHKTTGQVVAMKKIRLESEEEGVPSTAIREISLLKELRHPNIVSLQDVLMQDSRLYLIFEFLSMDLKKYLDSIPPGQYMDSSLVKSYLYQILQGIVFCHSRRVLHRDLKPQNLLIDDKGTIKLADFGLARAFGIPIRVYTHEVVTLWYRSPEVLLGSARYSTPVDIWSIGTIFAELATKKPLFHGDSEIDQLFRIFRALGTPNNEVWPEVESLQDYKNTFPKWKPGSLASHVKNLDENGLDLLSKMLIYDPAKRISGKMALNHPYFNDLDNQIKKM
# T3 sequence (P14635 whole entry partner): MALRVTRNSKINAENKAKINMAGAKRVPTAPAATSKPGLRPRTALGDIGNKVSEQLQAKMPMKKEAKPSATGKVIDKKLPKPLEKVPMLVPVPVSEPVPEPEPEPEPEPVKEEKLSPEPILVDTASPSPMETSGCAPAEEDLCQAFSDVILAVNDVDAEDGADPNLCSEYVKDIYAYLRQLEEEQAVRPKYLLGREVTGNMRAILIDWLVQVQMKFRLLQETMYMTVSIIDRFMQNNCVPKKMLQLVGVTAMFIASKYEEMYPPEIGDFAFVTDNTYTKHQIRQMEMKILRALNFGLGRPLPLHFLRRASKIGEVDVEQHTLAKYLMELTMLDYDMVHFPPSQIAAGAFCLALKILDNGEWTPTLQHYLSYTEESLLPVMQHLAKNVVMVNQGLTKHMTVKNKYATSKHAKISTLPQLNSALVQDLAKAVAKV
# Experiment: Enzymatic assay for CDK1 (FRET based LANCE Ultra kinase assay)
# Type: biochemical
# Conditions: read-out: CDK1 enzymatic activity (IC50 range)
# Procedure, shortened: as §1
row,Compound,IC50 [µM]
1,CC(C)c1cnn2c(NCc3cccc4c3N(C)C(=O)CC4)nc(N3CCC(N)CC3)nc12 [Compound 69],0.1 to 1
2,CC(=O)NC1CCN(c2nc(NCc3ccccc3-c3cc4ccccc4[nH]3)n3ncc(C(C)C)c3n2)CC1 [Compound 111],> 1
3,CC(C)c1cnn2c(NCc3ccccc3-c3cc4ccccc4[nH]3)nc(N3CCC(C(N)=O)CC3)nc12 [Compound 117],> 1

# The next lines start with the values.
row,IC50 [µM],Compound
1,> 1,CC(C)c1cnn2c(NCc3ccccc3N3CCc4ccccc43)nc(N3CCC(N)CC3)nc12 [Compound 76]
2,> 1,CC(C)c1cnn2c(NCc3ccccc3-c3nc4ccccc4n3C)nc(N3CCC(N)CC3)nc12 [Compound 96]
3,> 1,CC(C)c1cnn2c(NCc3ccccc3-c3cc4ccccc4[nH]3)nc(NC3CCOCC3)nc12 [Compound 114]

# System: RPMI-8226
# Experiment: Cellular RPMI-8226 viability assay (CellTiter-Glo, 72 hours)
# Type: cell-based
# Conditions: Homo sapiens
# Procedure: All cell lines were routinely tested for mycoplasma.
# The effect of the CDK7 inhibitor to inhibit the growth of target cancer cells was evaluated through the 72 hours time period of viability assay. Briefly, the candidate cell line ware plated in 96 well plate at the following density of cells respectively. […] DMSO solvent without compound served as a control and final DMSO concentration less than 0.1%. After 72 hours of incubation at 37° C., 5% CO2 incubator, cells were analyzed for the viability using the CellTiter-Glo Luminescent Cell Viability Assay (Promega, Cat #G7570). All viability assays were performed in duplicate and Luminescence was read using an Envision (Perkin Elmer, USA). Data was analyzed using XLfit software.
row,Compound,IC50 [µM]
1,CC(C)c1cnn2c(NCc3cccc4ccc(-n5cccn5)nc34)nc(N3CCC(N)CC3)nc12 [Compound 59],1 to 10
2,CC(C)c1cnn2c(NCc3cccc4c3N(C)C(=O)CC4)nc(N3CCC(N)CC3)nc12 [Compound 69],< 1
3,CC(C)c1cnn2c(NCc3ccccc3-n3cc4cc(Br)ccc4n3)nc(N3CCC(N)CC3)nc12 [Compound 100],1 to 10
4,CC(C)c1cnn2c(NCc3ccccc3-n3cc4cc(-c5ccccc5)ccc4n3)nc(N3CCC(N)CC3)nc12 [Compound 101],1 to 10
5,CC(=O)NC1CCN(c2nc(NCc3ccccc3-c3cc4ccccc4[nH]3)n3ncc(C(C)C)c3n2)CC1 [Compound 111],1 to 10
6,CC(C)c1cnn2c(NCc3ccccc3-c3cc4ccccc4[nH]3)nc(N3CCC(C(N)=O)CC3)nc12 [Compound 117],1 to 10

# The remaining lines, values ahead:
row,IC50 [µM],Compound
1,< 1,CC(C)c1cnn2c(NCc3ccccc3N3CCc4ccccc43)nc(N3CCC(N)CC3)nc12 [Compound 76]
2,< 1,CC(C)c1cnn2c(NCc3ccccc3-c3nc4ccccc4n3C)nc(N3CCC(N)CC3)nc12 [Compound 96]
3,1 to 10,CC(C)c1cnn2c(NCc3ccccc3-c3cc4ccccc4[nH]3)nc(NC3CCOCC3)nc12 [Compound 114]

# System: MOLT-4
# Experiment: Cellular MOLT-4 viability assay (CellTiter-Glo, 72 hours)
# Type: cell-based
# Conditions: Homo sapiens, MOLT4 viability assay
# Procedure, shortened: (§2)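 72 h treatment, 37 °C, 5% CO2; DMSO ctrl, final <0.1%; CellTiter-Glo luminescence; n=2.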
row,Compound,IC50 [µM]
1,CC(C)c1cnn2c(NCc3cccc4ccc(-n5cccn5)nc34)nc(N3CCC(N)CC3)nc12 [Compound 59],1 to 10
2,CC(C)c1cnn2c(NCc3cccc4c3N(C)C(=O)CC4)nc(N3CCC(N)CC3)nc12 [Compound 69],1 to 10
3,CC(C)c1cnn2c(NCc3ccccc3-n3cc4cc(Br)ccc4n3)nc(N3CCC(N)CC3)nc12 [Compound 100],1 to 10
4,CC(C)c1cnn2c(NCc3ccccc3-n3cc4cc(-c5ccccc5)ccc4n3)nc(N3CCC(N)CC3)nc12 [Compound 101],1 to 10
5,CC(=O)NC1CCN(c2nc(NCc3ccccc3-c3cc4ccccc4[nH]3)n3ncc(C(C)C)c3n2)CC1 [Compound 111],1 to 10
6,CC(C)c1cnn2c(NCc3ccccc3-c3cc4ccccc4[nH]3)nc(N3CCC(C(N)=O)CC3)nc12 [Compound 117],1 to 10

# The remaining lines, values ahead:
row,IC50 [µM],Compound
1,1 to 10,CC(C)c1cnn2c(NCc3ccccc3N3CCc4ccccc43)nc(N3CCC(N)CC3)nc12 [Compound 76]
2,1 to 10,CC(C)c1cnn2c(NCc3ccccc3-c3nc4ccccc4n3C)nc(N3CCC(N)CC3)nc12 [Compound 96]
3,1 to 10,CC(C)c1cnn2c(NCc3ccccc3-c3cc4ccccc4[nH]3)nc(NC3CCOCC3)nc12 [Compound 114]

# Target: T4, CDK5/p25 (Homo sapiens, UniProt Q00535)
# T4 construct: purchased Invitrogen PR8543B
# T4 sequence (Q00535 whole entry): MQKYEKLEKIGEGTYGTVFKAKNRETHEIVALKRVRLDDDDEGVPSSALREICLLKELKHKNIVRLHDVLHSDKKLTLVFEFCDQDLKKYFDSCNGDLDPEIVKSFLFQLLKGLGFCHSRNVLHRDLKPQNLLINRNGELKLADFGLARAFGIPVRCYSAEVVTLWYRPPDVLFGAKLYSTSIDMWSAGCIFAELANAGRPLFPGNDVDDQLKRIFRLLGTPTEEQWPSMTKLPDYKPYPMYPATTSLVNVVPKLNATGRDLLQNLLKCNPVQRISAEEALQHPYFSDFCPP
# T4 sequence (Q15078 99-307 partner limits assumed): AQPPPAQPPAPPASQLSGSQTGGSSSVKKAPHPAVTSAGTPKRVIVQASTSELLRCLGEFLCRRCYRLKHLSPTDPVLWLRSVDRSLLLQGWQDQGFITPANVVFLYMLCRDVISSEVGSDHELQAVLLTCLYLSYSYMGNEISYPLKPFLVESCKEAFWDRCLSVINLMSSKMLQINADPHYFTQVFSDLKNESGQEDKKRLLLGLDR
# Experiment: Enzymatic assay for CDK5 (FRET based LANCE Ultra kinase assay)
# Type: biochemical
# Conditions: read-out: CDK5 enzymatic activity (IC50 range)
# Procedure, shortened: as §1
row,Compound,IC50 [µM]
1,CC(C)c1cnn2c(NCc3cccc4c3N(C)C(=O)CC4)nc(N3CCC(N)CC3)nc12 [Compound 69],< 0.1
2,CC(=O)NC1CCN(c2nc(NCc3ccccc3-c3cc4ccccc4[nH]3)n3ncc(C(C)C)c3n2)CC1 [Compound 111],> 1
3,CC(C)c1cnn2c(NCc3ccccc3-c3cc4ccccc4[nH]3)nc(N3CCC(C(N)=O)CC3)nc12 [Compound 117],> 1

# Further lines, results first:
row,IC50 [µM],Compound
1,0.1 to 1,CC(C)c1cnn2c(NCc3ccccc3N3CCc4ccccc43)nc(N3CCC(N)CC3)nc12 [Compound 76]
2,0.1 to 1,CC(C)c1cnn2c(NCc3ccccc3-c3nc4ccccc4n3C)nc(N3CCC(N)CC3)nc12 [Compound 96]
3,> 1,CC(C)c1cnn2c(NCc3ccccc3-c3cc4ccccc4[nH]3)nc(NC3CCOCC3)nc12 [Compound 114]

# System: H460
# Experiment: Cellular H460 viability assay (CellTiter-Glo, 72 hours)
# Type: cell-based
# Conditions: Homo sapiens, NCI-H460
# Procedure, shortened: as §2
row,Compound,IC50 [µM]
1,CC(C)c1cnn2c(NCc3cccc4ccc(-n5cccn5)nc34)nc(N3CCC(N)CC3)nc12 [Compound 59],1 to 10
2,CC(C)c1cnn2c(NCc3cccc4c3N(C)C(=O)CC4)nc(N3CCC(N)CC3)nc12 [Compound 69],< 1
3,CC(C)c1cnn2c(NCc3ccccc3-n3cc4cc(Br)ccc4n3)nc(N3CCC(N)CC3)nc12 [Compound 100],< 1
4,CC(C)c1cnn2c(NCc3ccccc3-n3cc4cc(-c5ccccc5)ccc4n3)nc(N3CCC(N)CC3)nc12 [Compound 101],1 to 10

# More lines, now with the values ahead:
row,IC50 [µM],Compound
1,< 1,CC(C)c1cnn2c(NCc3ccccc3N3CCc4ccccc43)nc(N3CCC(N)CC3)nc12 [Compound 76]
2,< 1,CC(C)c1cnn2c(NCc3ccccc3-c3nc4ccccc4n3C)nc(N3CCC(N)CC3)nc12 [Compound 96]
